{
  "source": "patent US8574551B2",
  "about": "“Compositions useful for reducing nephrotoxicity and methods of use thereof” (Verrow Pharmaceuticals, Inc., priority 2005, dated 2013)",
  "key": {"[1]": {"test": "MTX-captisol solubility: rate of precipitation of MTX at pH 5.0 in presence and absence of captisol", "format": "physicochemical", "settings": "for Amount of MTX in solution 1:25 dilution: diluted sample, pH 5.0, MTX added 0.91 mg/ml; for conc. of MTX (molarity of mtx): pH 5.0, Concentration of MTX added 0.002M", "procedure": "Solubility studies were performed to determine whether Captisol could prevent the precipitation of MTX over a time period greater than transit time of MTX through the kidney (i.e., less than 2 minutes). Each solution was acidified with HCl, centrifuged and aliquots of the supernatant removed as a function of time, and the concentration of MTX in solution was measured spectrophometrically."}, "[2]": {"tested_on": "kidney", "test": "Renal pathology in EAE mice after MTX or MTX+Captisol", "format": "in vivo, C57BL6 mice", "settings": "MTX 40 mg/kg single intravenous bolus, no Captisol", "procedure": "Injection volume were between 100-120 μl. […] Leukovorin, the active metabolite of folic acid, is typically given with methotrexate in anti-cancer chemotherapy to help protect normal cells. Mice were scored daily for disease severity and then sacrificed on day 10 of disease. Brain, kidney and spleen were formalin fixed. […] For light microscopic investigation, kidneys were fixed in 10% buffered formalin and processed routinely for paraffin embedding. Tissue sections of 5 micron meter were stained with hematoxylin and eosine and examined under Nikon coolpix light microscope. The severity of total kidney damage was evaluated by a semiquantitative measurement of damage as described. Each tissue section of the kidney was assessed for degeneration of glomerular structure, glomerular crowding and congestion, dilation of bowman space, degeneration of proximal and distal tubules, and dilation of renal tubules, vascular congestion, and inflammatory cell infiltration. For glomerular atrophy, glomeruli that contained more than 20 nuclei were scored “0”, and those containing less than 10 nuclei were scored “4.” Intermediate stages were 1, 2 and 3. Other criterion was scored on a 0-3 scale: 0=none; 1=mild; 2=moderate; 3=severe. […]"}, "[3]": {"tested_on": "kidney", "test": "Histopathological changes in the kidney after single bolus intravenous MTX with or without captisol at different molar ratios", "format": "in vivo", "settings": "normal mice, 48 hours", "procedure": "A study of histopathological changes in the kidney after single bolus intravenous MTX with or without concurrent captisol at different molar ratios was performed.\nMTX solutions were prepared as follows. Solution A (24 mg/ml (53 mM)) was prepared from stock solution of 25 mg/ml (Methotrexate from Bedford laboratories) in sterile PBS (total volume 6 mL). Solution B was prepared by diluting 3 ml of Solution A to 1:1.33 in PBS to obtain a working dilution of 18 mg/mL (39.6 mM), pH 7.4. Solution C was prepared by diluting 2 mL of solution A 1:2 to obtain a working dilution of 12 mg/mL (26.4 mM), pH 7.2.\nMTX+Captisol solutions were prepared as follows. Solution D was made by adding 57.32 mg Captisol to an aliquot of 500 micro liter of solution A (molar ratio 1:1, neutral pH). […]\nMTX and Captisol were administered to 8 groups of mice (Groups I-VIII; see Table 3) via tail vein by a single injection in a volume of 100-120 μL. […] Clinical symptoms, body weights were recorded. […]\nSemi quantitative estimates of total kidney damage in mice treated with MTX 80 mg/kg, 120 mg/kg, and a combination of MTX+Captisol at MTX to Captisol molar ratio of 1:1 and 1:0.5, are shown in FIG. 4. […] Hematoxylin and eosin sections of paraffin embedded kidney were analyzed microscopically for extent of renal damage. Data is expressed as mean±SEM. […]"}, "[4]": {"tested_on": "kidney", "test": "Captisol-MTX time studies, kidney histopathology at 24 hrs, 48 hrs, 1 week", "format": "in vivo, mice", "procedure": "For light microscopic investigation, kidneys were fixed in 10% buffered formalin and processed routinely for paraffin embedding. Tissue sections of 5 micron meter were stained with hematoxylin and eosine and examined under a Nikon coolpix light microscope, photography was done with a Nikon Coolpix camera. The severity of total kidney damage was evaluated by a semiquantitative measurement of damage as described below. Each tissue section of the kidney was assessed for degeneration of glomerular structure, glomerular crowding and congestion, dilation of bowman space, degeneration of proximal and distal tubules, and dilation of renal tubules, vascular congestion, and inflammatory cell infiltration. For glomerular atrophy, glomeruli that contained more than 20 nuclei were scored “0”, and those containing less than 10 nuclei were scored “4.” Intermediate stages were 1, 2 and 3. Other criterion was scored on a 0-3 scale: 0=none; 1=mild; 2=moderate; and 3=severe. The microscopic score of each tissue was calculated as the sum of the scores given to each criterion and at least 100 nephrons (glomeruli plus surrounding tubules) were analyzed per section. See, e.g., Bhat et al., PNAS (2003) 100(7); Sener et al., Cell Biol Toxicol (2006) 22:[…]."}, "[5]": {"tested_on": "kidney", "test": "Methotrexate induced nephrotoxicity model in mice, HPβCD", "format": "in vivo, C57BL/6 mice", "settings": "normal mice; MTX 80 mg/kg single IV injection alone; 24 hrs", "procedure": "To determine the protective effect of other cyclodextrin molecules, 2-hydroxypropyl β-cyclodextrin (HPβCD) was evaluated. Female C57BL/6 mice were injected intravenously with a single dose of methotrexate 80 mg/kg, IV, or methotrexate+HPβCD, IV, at methotrexate to HPβCD molar ratios of 1:1 and 1:0.5. The animals were sacrificed after 24 hrs. The development of glomerular and tubulointerstitial injury after methotrexate and protection by methotrexate+HPβCD was evaluated by means of assessment of renal histology by light microscopy. Leukovorin was given 4 hrs and after 18 hrs. Urine was not alkalinized.\nParaffin sections of […] were cut and stained with H&E and periodic acid Schiff (PAS). They were examined by light microscopy and scored in a blinded fashion. Five arbitratary fields at 40× magnification in each sections was assessed for the parameters, and scored according to the criteria, set forth in Example 7."}},
  "data": [
    {"smiles": "CN(Cc1cnc2nc(N)nc(N)c2n1)c1ccc(C(=O)N[C@@H](CCC(=O)O)C(=O)O)cc1", "note": "[MTX, N-[4-[[(2,4-diamino-6pteridinyl)methyl]methylamino]benzoyl]-L-glutamicacid]", "values": [
      {"measurement": "Amount of MTX in solution 1:25 dilution", "setting": "[1]; 5 min after adding acid", "result": 3.449, "unit": "µg/mL"},
      {"measurement": "Amount of MTX in solution 1:25 dilution", "setting": "[1]; 10 min after adding acid", "result": 2.509, "unit": "µg/mL"},
      {"measurement": "Amount of MTX in solution 1:25 dilution", "setting": "[1]; 15 min after adding acid", "result": 3.177, "unit": "µg/mL"},
      {"measurement": "Amount of MTX in solution 1:25 dilution", "setting": "[1]; 20 min after adding acid", "result": 3.844, "unit": "µg/mL"},
      {"measurement": "Amount of MTX in solution 1:25 dilution", "setting": "[1]; 30 min after adding acid", "result": 3.807, "unit": "µg/mL"},
      {"measurement": "Amount of MTX in solution 1:25 dilution", "setting": "[1]; 40 min after adding acid", "result": 3.3, "unit": "µg/mL"},
      {"measurement": "Amount of MTX in solution 1:25 dilution", "setting": "[1]; 50 min after adding acid", "result": 3.412, "unit": "µg/mL"},
      {"measurement": "Amount of MTX in solution 1:25 dilution", "setting": "[1]; 60 min after adding acid", "result": 3.906, "unit": "µg/mL"},
      {"measurement": "conc. of MTX (molarity of mtx)", "setting": "[1]; 5 min after adding acid", "result": 189.7, "unit": "µM"},
      {"measurement": "conc. of MTX (molarity of mtx)", "setting": "[1]; 10 min after adding acid", "result": 138, "unit": "µM"},
      {"measurement": "conc. of MTX (molarity of mtx)", "setting": "[1]; 15 min after adding acid", "result": 174.7, "unit": "µM"},
      {"measurement": "conc. of MTX (molarity of mtx)", "setting": "[1]; 20 min after adding acid", "result": 211.4, "unit": "µM"},
      {"measurement": "conc. of MTX (molarity of mtx)", "setting": "[1]; 30 min after adding acid", "result": 209.4, "unit": "µM"},
      {"measurement": "conc. of MTX (molarity of mtx)", "setting": "[1]; 40 min after adding acid", "result": 181.5, "unit": "µM"},
      {"measurement": "conc. of MTX (molarity of mtx)", "setting": "[1]; 50 min after adding acid", "result": 187.6, "unit": "µM"},
      {"measurement": "conc. of MTX (molarity of mtx)", "setting": "[1]; 60 min after adding acid", "result": 214.8, "unit": "µM"},
      {"measurement": "kidney sections, morphological changes", "setting": "[2]", "result": "dilation of renal tubules and degeneration of proximal tubules"},
      {"measurement": "kidney histopathology (H&E)", "setting": "[3]; MTX 80 mg/kg iv bolus alone", "result": "dilation of tubules, degenerative changes in the tubules, hypercellularity in the glomerulus and atypical collection of interstitial cells and convulated tubules"},
      {"measurement": "kidney histopathology (H&E)", "setting": "[3]; MTX 120 mg/kg IV alone", "result": "glomerular atrophy, degeneration of basement membrane on bowman capsule, degenerative changes in the tubules, hypercellularity in the glomerulus and infiltration of mononuclear cells"},
      {"measurement": "kidney histopathology (H&E)", "setting": "[4]; MTX 160 mg/kg alone, 24 hours post injection", "result": "degeneration of glomerular structure and dilation of Bowman's space, degeneration of proximal and distal tubules and inflammatory cell infiltration"},
      {"measurement": "kidney histopathology (H&E)", "setting": "[4]; MTX 160 mg/kg i.v. alone, 48 hours post injection", "result": "degeneration of glomerular structure, dilation of Bowman's space, dilation of proximal and distal tubules, degeneration of proximal and distal tubules and inflammatory cell infiltration"},
      {"measurement": "kidney histopathology (H&E)", "setting": "[4]; MTX 160 mg/kg single i.v. bolus alone, 1 week", "result": "degeneration of proximal and distal tubules with occasional glomerular atrophy or crowding"},
      {"measurement": "kidney tissue histopathological changes (FIG. 5)", "setting": "[4]; normal mice, MTX 160 mg/kg single iv bolus, 24 and 48 hours", "result": "extensive histopathological changes"},
      {"measurement": "renal histology", "setting": "[5]", "result": "significant histopathological changes in the kidney"}
    ]}
  ]
}
